Structures can show the parent of a compound that is named as a salt.
Experiments:
[1] = system: mice; experiment: Spontaneous locomotor activity (Opto-Varimex-4 Auto-Track); type: in vivo, Albino Swiss mice; details: for Distance traveled: mean ± SEM; for effects on locomotor activity: administered either alone or combined together, doses of Table 2 (traxoprodil 10 and 20 mg/kg), two-way ANOVA
Protocol: In order to avoid the risk of obtaining the false positive/negative effects in the FST caused by a possible influence of the tested drugs on the locomotor activity, spontaneous locomotor activity was measured using an animal activity meter Opto-Varimex-4 Auto-Track (Columbus Instruments, USA). The device consists of four transparent cages with a lid (43 × 43 × 32 cm), a set of four infrared emitters (each emitter has 16 laser beams), and four detectors monitoring animal movements. Each mouse was placed individually into the cage for 10 min. Spontaneous locomotor activity was evaluated between the 2nd and the 6th min, which corresponds with the time interval analyzed in the FST.
The results obtained in this test were presented as an arithmetic average distance (given in cm) traveled by a mouse ± SEM for each experimental group.

[2] = Determination of antidepressants and traxoprodil in brains by HPLC; details: for concentration at 60 min: Albino Swiss, mouse, brain, intraperitoneal; for concentration at 60 min / Antidepressants concentration in brain: 60 min before decapitation, mean ± SEM; for change of concentration in brain tissue after joint administration with traxoprodil: traxoprodil 10 mg/kg co-administered, Student's t-test vs drug + saline
Protocol: Sixty minutes following administration of studied antidepressant drugs with or without traxoprodil, mice were decapitated to collect brains for pharmacokinetic studies. Immediately after the decapitation, the brains were dissected from the skull, washed with 0.9 % NaCl and frozen at −25 °C.
Brain concentrations of the studied antidepressants and traxoprodil were assayed by high performance liquid chromatography (HPLC) methods. The brains were homogenized in distilled water (1 : 4, w/v) with a tissue homogenizer TH220 (Omni International, Inc., Warrenton, VA, USA). For all studied antidepressant drugs, the extraction from brain homogenates were performed using the mixture of ethyl acetate : hexane (30 : 70, v/v). Amitriptyline (2 μg/ml) was used as an internal standard (IS) for imipramine and paroxetine (200 ng/ml) for fluoxetine and escitalopram. In order to isolate imipramine and its metabolite desipramine, to brain homogenate (0.5 ml) containing these drugs the IS was added and the samples were alkalized with 250 μl of 4 M NaOH. Then the samples were extracted with 5 ml of the extraction reagent by shaking for 20 min (IKA Vibrax VXR, Germany). After centrifugation at 3000 rpm for 20 min (Universal 32, Hettich, Germany), the organic layer was transferred to a new tube containing a 200 μl solution of 0.1 M H2SO4 and methanol (90 : 10, v/v), shaken for 0.5 h and then centrifuged for 15 min (3000 rpm). The organic layer was discarded and a 50 μl aliquot of the acidic solution was injected into the HPLC system. In the case of escitalopram, the procedure was similar with the exception that the extraction with an organic reagent was repeated two times, 1 ml of brain homogenate was used, and the volume of the acidic phase was 100 μl. In turn, to 1 ml of brain homogenates containing fluoxetine the IS was added and the samples were alkalized with 500 μl of 4 M NaOH. After the addition of 1 ml of the concentrated NaCl solution (10 g/50 ml), the samples were vortexed for 15 s and 5 ml of the extraction reagent was added. Then the samples were shaken for 20 min and centrifuged for 15 min at 3000 rpm. After the centrifugation, the organic layer was transferred into a conical glass tube and evaporated to dryness at 37 °C under a gentle stream of nitrogen in a water bath. The residue was dissolved with 100 μl of methanol and 50 μl of this solution was injected into the HPLC system.
The HPLC system (Thermo Separation Products, San Jose, CA, USA) consisted of a P100 isocratic pump, a UV100 variable-wavelength UV/VIS detector, a Rheodyne 7125 injector (Rheodyne, Cotati, CA, USA) with a 50 μl sample loop, and a Chromjet SP4400 computing integrator.
All analyses were performed on a 250 × 4.0 mm LiChrospher®100 RP-18 column with a particle size of 5 μm (Merck, Darmstadt, Germany) protected with a guard column (4 × 4 mm) with the same packing material. The mobile phase consisting of 50 mM potassium dihydrogen phosphate buffer (pH = 4.5) and acetonitrile was mixed at a ratio of 60 : 40 (v/v) for imipramine and fluoxetine, and 65 : 35 (v/v) for escitalopram and run at 1 ml/min. Chromatographic analysis was carried out at 21 °C and the analytical wavelength of 227 nm for fluoxetine, 240 nm for escitalopram, and 214 nm for imipramine.
In order to determine traxoprodil concentrations in mice brain, to 1 ml of brain homogenate containing this compound 2 ml of methanol was added and the samples were briefly vortexed and then shaken vigorously for 10 min (IKA Vibrax VXR, Germany) to precipitate proteins. After centrifugation for 20 min at 3000 rpm the supernatant (2 ml) was transferred into a conical glass tube and evaporated to dryness at 45 °C under a gentle stream of nitrogen in a water bath. The residue was dissolved with 100 μl of methanol and 40 μl of this solution were injected into the HPLC system.

[3] = system: mice; experiment: Forced swim test (FST) in mice; type: in vivo, Albino Swiss mice; details: for immobility time in FST vs control group: Fig. 1
Protocol: Each mouse was placed individually into a glass cylinder (height 25 cm, diameter 10 cm) containing 12–15 cm of water at 23–25 °C. The animal was left in the cylinder for 6 min. The total duration of immobility was recorded during the last 4 min of the 6-min testing period. The mouse was judged to be immobile when it ceased struggling and remained floating motionless in the water, making only the movements necessary to keep its head above the water level.

[4] = system: mice; parameters: method as in Poleszak et al. [2013]; details: ref Poleszak et al. [2013]; cited from earlier work

**Q.** With `CN(C)CCCN1c2ccccc2CCc2ccccc21` [imipramine, imipramine hydrochloride] as the compound, how does the Distance traveled ([1]; Table 2 (A): imipramine 15 mg/kg + saline i.p.) read?
**A.** 492.3 ± 57.11 cm

**Q.** What about the “effects on locomotor activity” value [1] of the same compound?
**A.** no statistically significant effects

**Q.** What about the Distance traveled ([1]; imipramine 30 mg/kg i.p. 60 min before test, 2nd-6th min, n=8, Table 1) of the same compound?
**A.** 653.9 ± 99.38 cm

**Q.** And the concentration at 60 min ([2]; 15 mg/kg, Antidepressants concentration in brain, imipramine 15 mg/kg + saline i.p., n=10)?
**A.** 2060 ± 253 ng/g

**Q.** And the concentration at 60 min ([2]; Antidepressants concentration in brain, imipramine 15 mg/kg + traxoprodil 10 mg/kg i.p., n=10)?
**A.** 3210 ± 374 ng/g

**Q.** And the “immobility time in FST” value ([3]; imipramine 15 mg/kg given alone i.p., Fig. 2a)?
**A.** no effect

**Q.** For `N[C@@H](Cc1ccc(Cl)cc1)C(=O)O` (racemic) [p-CPA, p-chlorophenylalanine], which Distance traveled ([1]; Table 2 (E): p-CPA 200 mg/kg i.p. once daily over three days + saline) is on record?
**A.** 656.4 ± 107.4 cm

**Q.** And the “effects on locomotor activity” value [1]?
**A.** no statistically significant effects

**Q.** And the “immobility time in FST” value ([3]; p-CPA 200 mg/kg i.p. per 3 days, alone, Fig. 3a)?
**A.** no effect

**Q.** Which results are given for `Cc1nc2sccn2c(=O)c1CCN1CCC(=C(c2ccc(F)cc2)c2ccc(F)cc2)CC1` [ritanserin]?
**A.** Distance traveled ([1]; Table 2 (G): ritanserin 4 mg/kg + saline i.p.): 607.5 ± 79.78 cm; effects on locomotor activity [1]: no statistically significant effects; immobility time in FST ([3]; ritanserin 4 mg/kg i.p. alone, Fig. 3c): no effect

**Q.** For `CNCCCN1c2ccccc2CCc2ccccc21` [desipramine], which “Antidepressants concentration in brain” value ([2]; imipramine 15 mg/kg + saline i.p., n=10) is on record?
**A.** (101.0 ± 19.86) ng/g

**Q.** And the “Antidepressants concentration in brain” value ([2]; imipramine 15 mg/kg + traxoprodil 10 mg/kg i.p., n=10)?
**A.** (724.0 ± 109.0***) ng/g

**Q.** What about the “change of concentration in brain tissue after joint administration with traxoprodil” value [2] of the same compound?
**A.** significant increase

**Q.** With `CC(C(O)c1ccc(O)cc1)N1CCC(Cc2ccccc2)CC1` (centres unmarked) [ifenprodil] as the compound, how does the “dose range with antidepressant effect in the FST” value [4] read?
**A.** 20 to 40 mg/kg

**Q.** Which Distance traveled ([1]; Table 2 (B): fluoxetine 5 mg/kg + saline i.p.) does the source give for `CNCCC(Oc1ccc(C(F)(F)F)cc1)c1ccccc1` (centres unmarked) [fluoxetine, fluoxetine hydrochloride] here?
**A.** 667.8 ± 111.1 cm

**Q.** And the “effects on locomotor activity” value [1]?
**A.** no statistically significant effects

**Q.** What about the “immobility time in FST” value ([3]; fluoxetine 5 mg/kg given alone i.p., Fig. 2b) of the same compound?
**A.** no effect

**Q.** Which results are given for `COc1ccccc1N1CCN(CCN(C(=O)C2CCCCC2)c2ccccn2)CC1` [WAY 100,635]?
**A.** Distance traveled ([1]; Table 2 (F): WAY 0.1 mg/kg + saline i.p.): 639.0 ± 59.16 cm; effects on locomotor activity [1]: no statistically significant effects; immobility time in FST ([3]; WAY 100,635 0.1 mg/kg i.p. alone, Fig. 3b): no effect

**Q.** Which Distance traveled ([1]; Table 2 (D): reboxetine 2.5 mg/kg + saline i.p.) does the source give for `CCOc1ccccc1OC(c1ccccc1)C1CNCCO1` (centres unmarked) [reboxetine, reboxetine mesylate] here?
**A.** 566.1 ± 54.75 cm

**Q.** And the “immobility time in FST” value ([3]; reboxetine 2.5 mg/kg given alone i.p., Fig. 2d)?
**A.** no effect

**Q.** With `C[C@@H]([C@@H](O)c1ccc(O)cc1)N1CCC(O)(c2ccccc2)CC1` [traxoprodil] as the compound, how does the Distance traveled ([1]; Table 2 (A): traxoprodil 10 mg/kg + saline i.p.) read?
**A.** 629.1 ± 79.29 cm

**Q.** What about the Distance traveled ([1]; Table 2 (B): traxoprodil 10 mg/kg + saline i.p.) of the same compound?
**A.** 629.1 ± 79.29 cm

**Q.** What about the Distance traveled ([1]; Table 2 (C): traxoprodil 10 mg/kg + saline i.p.) of the same compound?
**A.** 986.8 ± 278.5 cm

**Q.** What about the Distance traveled ([1]; Table 2 (D): traxoprodil 10 mg/kg + saline i.p.) of the same compound?
**A.** 629.1 ± 79.29 cm

**Q.** And the Distance traveled ([1]; Table 2 (E): traxoprodil 20 mg/kg + saline i.p.)?
**A.** 731.1 ± 145.1 cm

**Q.** What about the Distance traveled ([1]; Table 2 (F): traxoprodil 20 mg/kg + saline i.p.) of the same compound?
**A.** 687.5 ± 71.45 cm

**Q.** And the Distance traveled ([1]; Table 2 (G): traxoprodil 20 mg/kg + saline i.p.)?
**A.** 687.5 ± 71.45 cm

**Q.** What about the “effects on locomotor activity” value [1] of the same compound?
**A.** no statistically significant effects

**Q.** And the “effect on locomotor activity versus control group” value ([1]; all tested doses (5, 10, 20, and 40 mg/kg), one-way ANOVA)?
**A.** no statistically significant effect

**Q.** And the Distance traveled ([1]; traxoprodil 5 mg/kg i.p. 60 min before test, 2nd-6th min, n=8, Table 1)?
**A.** 915.0 ± 92.10 cm

**Q.** What about the Distance traveled ([1]; traxoprodil 10 mg/kg i.p. 60 min before test, 2nd-6th min, n=8, Table 1) of the same compound?
**A.** 738.5 ± 49.93 cm

**Q.** And the Distance traveled ([1]; traxoprodil 20 mg/kg i.p. 60 min before test, 2nd-6th min, n=8, Table 1)?
**A.** 912.0 ± 75.87 cm

**Q.** And the Distance traveled ([1]; traxoprodil 40 mg/kg i.p. 60 min before test, 2nd-6th min, n=8, Table 1)?
**A.** 789.1 ± 119.8 cm

**Q.** And the concentration at 60 min ([2]; 10 mg/kg, Traxoprodil concentration in brain, traxoprodil 10 mg/kg + saline ip, n=7–8)?
**A.** 76.4 ± 13.5 ng/g

**Q.** What about the concentration at 60 min ([2]; Traxoprodil concentration in brain, traxoprodil 10 mg/kg + escitalopram 2 mg/kg ip) of the same compound?
**A.** 249 ± 49.2 ng/g

**Q.** And the concentration at 60 min ([2]; Traxoprodil concentration in brain, traxoprodil 10 mg/kg + fluoxetine 5 mg/kg ip)?
**A.** 151 ± 10.3 ng/g

**Q.** And the concentration at 60 min ([2]; Traxoprodil concentration in brain, traxoprodil 10 mg/kg + imipramine 15 mg/kg ip)?
**A.** 119 ± 22.5 ng/g

**Q.** What about the “change of traxoprodil concentration in brain” value ([2]; joint administration with escitalopram vs traxoprodil group, t-test p < 0.01) of the same compound?
**A.** significant increase

**Q.** And the “change of traxoprodil concentration in brain” value ([2]; joint administration with fluoxetine vs traxoprodil group, t-test p < 0.001)?
**A.** significant increase

**Q.** What about the “change of traxoprodil concentration in brain” value ([2]; joint administration with imipramine vs traxoprodil group, t-test p > 0.05) of the same compound?
**A.** No statistically significant changes

**Q.** What about the “FST effect compared with imipramine at an active dose” value ([3]; highest traxoprodil dose used (40 mg/kg) vs imipramine 30 mg/kg) of the same compound?
**A.** effect similar to the action of imipramine

**Q.** And the “immobility time in FST vs control group” value ([3]; traxoprodil 5 mg/kg i.p. 60 min before test)?
**A.** no statistically significant effect

**Q.** What about the “immobility time in FST” value ([3]; traxoprodil 10 mg/kg given alone i.p., Fig. 2a) of the same compound?
**A.** no effect

**Q.** And the “immobility time in FST vs control group” value ([3]; traxoprodil 10 mg/kg i.p. 60 min before test)?
**A.** no statistically significant effect

**Q.** What about the “immobility time in FST vs control group” value ([3]; traxoprodil 20 mg/kg i.p. 60 min before test) of the same compound?
**A.** significantly reduced

**Q.** What about the “immobility time in FST” value ([3]; traxoprodil 20 mg/kg i.p., WAY 100,635 experiment, Fig. 3b) of the same compound?
**A.** significantly reduced

**Q.** What about the “immobility time in FST” value ([3]; traxoprodil 20 mg/kg i.p., p-CPA experiment, Fig. 3a) of the same compound?
**A.** significantly reduced

**Q.** And the “immobility time in FST” value ([3]; traxoprodil 20 mg/kg i.p., ritanserin experiment, Fig. 3c)?
**A.** significantly reduced

**Q.** And the “immobility time in FST vs control group” value ([3]; traxoprodil 40 mg/kg i.p. 60 min before test)?
**A.** significantly reduced

**Q.** What does the source list for `CN(C)CCC[C@@]1(c2ccc(F)cc2)OCc2cc(C#N)ccc21` [escitalopram, escitalopram oxalate]?
**A.** Distance traveled ([1]; Table 2 (C): escitalopram 2 mg/kg + saline i.p.): 957.1 ± 174.1 cm; effects on locomotor activity [1]: no statistically significant effects; concentration at 60 min ([2]; 2 mg/kg, Antidepressants concentration in brain, escitalopram 2 mg/kg + saline i.p., n=10): 296 ± 17.7 ng/g; concentration at 60 min ([2]; Antidepressants concentration in brain, escitalopram 2 mg/kg + traxoprodil 10 mg/kg i.p., n=10): 361 ± 20.5 ng/g; change of concentration in brain tissue after joint administration with traxoprodil [2]: significant increase; immobility time in FST ([3]; escitalopram 2 mg/kg given alone i.p., Fig. 2c): no effect

Reference: article PMC4933725, “Traxoprodil, a selective antagonist of the NR2B subunit of the NMDA receptor, potentiates the antidepressant-like effects of certain antidepressant drugs in the forced swim test in mice” (Metabolic Brain Disease, 2016)
